Data taken from the supplement of paper PMC7801607.

Key:
[1] = tested on: Plasmodium berghei ANKA liver stage in HepG2-A16-CD81
[2] = tested on: Plasmodium falciparum Dd2 asexual blood stage
[3] = tested on: Plasmodium falciparum NF54 asexual blood stage
[4] = tested on: Plasmodium falciparum NF54 stage IV/V gametocytes
Description: (§1)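 Dose-response IC50s: P. falciparum NF54 asexual (pLDH, 72 h; 6 means >6 µM), Dd2 asexual (SYBR Green I, 72 h, 1536-well; 5 means >5 µM), NF54 stage IV/V gametocytes (luciferase 48 h, ATP 24 h, PrestoBlue 48 h), P. berghei liver stage in HepG2-A16-CD81 (luciferase, 48 h; 5 means >5 µM), HepG2 CC50 (CellTiter-Glo; 5 means >5 µM).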

[5] = tested on: Plasmodium falciparum NF54 stage IV/V gametocytes; remark: listed apart in the source
Description: as §1

[6] = tested on: HepG2-A16-CD81; experiment: CC50; higher = less toxic
Description: as §1

Row | IC50 [1] | IC50 [2] | IC50 [3] | IC50 (ATP bioluminescence) [4] | IC50 (luciferase reporter) [5] | Structure (SMILES) | CC50 [6]
1 | > 5 µM | 55 nM | 49.5 nM | 79.9 nM | 0.152 µM | Nc1nc(Nc2ccc3nc(-c4ccc(F)cc4)cc(N)c3c2)cc(-c2ccccc2)n1 | > 5 µM
2 | 3.35 µM | 506 nM | 940 nM | 1400 nM | 7.69 µM | COc1cc(C)c2c(Oc3cccc(C(F)(F)F)c3)c(OC)cc(NC(C)CCCN)c2n1 (centres undefined) | > 5 µM
3 | > 5 µM | 3380 nM | 1480 nM | 4230 nM | 7.65 µM | Clc1cc(Cl)c2c(c1)CCc1ccccc1C2n1ccnc1 (centres undefined) | > 5 µM
4 | 2.17 µM | 23 nM | 109 nM | 824 nM | 1.03 µM | CCCCC(CC)CNC(=N)NC(=N)NCCCCCCNC(=N)NC(=N)NCC(CC)CCCC (centres undefined) | 4.13 µM
